Assay results published in patent US10285982B2, “3-(1H-pyrrolo[2,3-B]pyridin-2-yl)-1H-pyrazolo[3,4-C]pyridines and therapeutic uses thereof” (Samumed, LLC, priority 2015, dated 2019).

Assays:
Assay type in all cases: cell-based
[1] = system: SW480 colon cancer cells; test: Cell viability assay (CellTiter-Blue); conditions: Homo sapiens, 96 h, four days; for inhibition at 10 µM: given where EC50 >10 μM, read-out: percent inhibition at 10 μM
How it was run: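 SW480 colon cancer cells (~2×10^3/well) exposed to 8-point 1:3 dilutions from 10 μM to 0.0045 μM for four days at 37 °C/5% CO2. Viability read by resazurin (CellTiter-Blue) fluorescence after ~3 h, Ex 560/Em 590 nm. EC50 from non-linear regression; percent inhibition at 10 μM given when EC50 >10 μM.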

[2] = system: primary human fibroblasts derived from IPF patients (LL29 cells) treated with TGF-β1; test: Inhibition of fibrotic process, αSMA staining in TGF-β1 treated LL29 fibroblasts; conditions: Fibroblast; for EC50: 96 h, % αSMA positive LL29 cells, TGF-β1 20 ng/mL, 4 days; for inhibition at 10 µM: given where EC50 >10 μM, αSMA, LL29 cells, TGF-β1, read-out: percent inhibition at 10 μM
How it was run: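 LL29 IPF-patient lung fibroblasts in 1% FBS F12 were given compounds (11-point, 10 μM to […], 0.1% DMSO) plus TGF-β1 20 ng/mL for 4 days at 37 °C. αSMA-positive fraction of live (SYTOX-negative) cells was imaged and normalized to TGF-β1/DMSO wells. EC50 by non-linear regression, or % inhibition at 10 μM if >10 μM.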

[3] = system: IL-6 (THP-1 cells); test: IL-6 inhibition in LPS-stimulated THP-1 cells (HTRF); conditions: Homo sapiens; for EC50: IL-6 in THP-1 cells, LPS 500 ng/mL, 22 hours; for inhibition at 10 µM: given where EC50 >10 μM, IL-6, THP-1 cells, LPS, read-out: percent inhibition at 10 μM
How it was run: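 THP-1 cells, serum-reduced (1% FBS) for 24 h, were preincubated with compound (10-point 1:3 series from 10 μM, 0.1% DMSO) for 2 h, then stimulated with 500 ng/mL LPS for 22 h at 37° C. IL-6 was read by HTRF (665/620 nm ratio) and normalized to DMSO. EC50 from four-parameter fit; % inhibition at 10 μM given if EC50 >10 μM.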

EC50 [1] | EC50 [3] | Structure (SMILES) | inhibition at 10 µM [1] | EC50 [2] | inhibition at 10 µM [2] | inhibition at 10 µM [3]
> 10 µM | > 10 µM | CC(C)CC(=O)Nc1cncc(-c2cc3c(-c4cc5c(-c6ccncc6)ccnc5[nH]4)n[nH]c3cn2)c1 [Compound 114, 3-Methyl-N-(5-(3-(4-(pyridin-4-yl)-1H-pyrrolo[2,3-b]pyridin-2-yl)-1H-pyrazolo[3,4-c]pyridin-5-yl)pyridin-3-yl)butanamide] | 0% | > 10 µM | 0% | 13%
> 10 µM | > 10 µM | O=C(Nc1cncc(-c2cc3c(-c4cc5cccnc5[nH]4)n[nH]c3cn2)c1)C1CCCCC1 [Compound 275, N-(5-(3-(1H-Pyrrolo[2,3-b]pyridin-2-yl)-1H-pyrazolo[3,4-c]pyridin-5-yl)pyridin-3-yl)cyclohexanecarboxamide] | 9.5% | 2.52 µM |  | 24.7%
> 10 µM | > 10 µM | c1ccc(-c2cc3c(-c4cc5c(-c6ccncc6)ccnc5[nH]4)n[nH]c3cn2)nc1 [Compound 140, 5-(Pyridin-2-yl)-3-(4-(pyridin-4-yl)-1H-pyrrolo[2,3-b]pyridin-2-yl)-1H-pyrazolo[3,4-c]pyridine] | 17.5% | > 10 µM | 10.5% | 23.5%
> 10 µM | > 10 µM | Nc1cncc(-c2cc3c(-c4cc5c(-c6ccoc6)ccnc5[nH]4)n[nH]c3cn2)c1 [Compound 311, 5-(3-(4-(Furan-3-yl)-1H-pyrrolo[2,3-b]pyridin-2-yl)-1H-pyrazolo[3,4-c]pyridin-5-yl)pyridin-3-amine] | 5.5% | 1.03 µM |  | 36.3%
> 10 µM | > 10 µM | CN(C)Cc1cncc(-c2cc3c(-c4cc5c(-c6ccncc6)ccnc5[nH]4)n[nH]c3cn2)c1 [Compound 125, N,N-Dimethyl-1-(5-(3-(4-(pyridin-4-yl)-1H-pyrrolo[2,3-b]pyridin-2-yl)-1H-pyrazolo[3,4-c]pyridin-5-yl)pyridin-3-yl)methanamine] | 3.9% | 5.01 µM |  | 34.4%
> 10 µM | > 10 µM | c1cc(N2CCCCC2)c2cc(-c3n[nH]c4cnc(C5CCNCC5)cc34)[nH]c2n1 [Compound 601, 3-(4-(Piperidin-1-yl)-1H-pyrrolo[2,3-b]pyridin-2-yl)-5-(piperidin-4-yl)-1H-pyrazolo[3,4-c]pyridine] | 12% | > 10 µM | 13% | 3%
> 10 µM | > 10 µM | CCCCC(=O)Nc1cncc(-c2cc3c(-c4cc5c(-c6cccnc6)ccnc5[nH]4)n[nH]c3cn2)c1 [Compound 103, N-(5-(3-(4-(Pyridin-3-yl)-1H-pyrrolo[2,3-b]pyridin-2-yl)-1H-pyrazolo[3,4-c]pyridin-5-yl)pyridin-3-yl)pentanamide] | 7.4% | > 10 µM | 4.8% | 17.8%
> 10 µM | > 10 µM | CC(C)(C)C(=O)Nc1cncc(-c2cc3c(-c4cc5c(-c6cccnc6)ccnc5[nH]4)n[nH]c3cn2)c1 [Compound 92, N-(5-(3-(4-(Pyridin-3-yl)-1H-pyrrolo[2,3-b]pyridin-2-yl)-1H-pyrazolo[3,4-c]pyridin-5-yl)pyridin-3-yl)pivalamide] | 14.9% | > 10 µM | 2.4% | 23.3%
> 10 µM | > 10 µM | CCCC(=O)Nc1cncc(-c2cc3c(-c4cc5c(-c6cc(F)cc(NCCN(C)C)c6)ccnc5[nH]4)n[nH]c3cn2)c1 [Compound 465, N-(5-(3-(4-(3-((2-(Dimethylamino)ethyl)amino)-5-fluorophenyl)-1H-pyrrolo [2,3-b]pyridin-2-yl)-1H-pyrazolo[3,4-c]pyridin-5-yl)pyridin-3-yl)butyramide] | 10.6% | > 10 µM | 43% | 21.5%
> 10 µM | > 10 µM | O=C(Nc1cncc(-c2cc3c(-c4cc5c(-c6cccc(F)c6)ccnc5[nH]4)n[nH]c3cn2)c1)c1ccccc1 [Compound 11, N-(5-(3-(4-(3-Fluorophenyl)-1H-pyrrolo[2,3-b]pyridin-2-yl)-1H-pyrazolo [3,4-c]pyridin-5-yl)pyridin-3-yl)benzamide] | 46.8% | 4.21 µM |  | 38.9%
> 10 µM | 3.06 µM | O=C(Nc1cncc(-c2cc3c(-c4cc5cccnc5[nH]4)n[nH]c3cn2)c1)C1CC1 [Compound 272, N-(5-(3-(1H-Pyrrolo[2,3-b]pyridin-2-yl)-1H-pyrazolo[3,4-c]pyridin-5-yl)pyridin-3-yl)cyclopropanecarboxamide] | 23.3% | 9.98 µM |  | 
> 10 µM | > 10 µM | O=C(Cc1ccccc1)Nc1cncc(-c2cc3c(-c4cc5c(-c6ccncc6)ccnc5[nH]4)n[nH]c3cn2)c1 [Compound 122, 2-Phenyl-N-(5-(3-(4-(pyridin-4-yl)-1H-pyrrolo[2,3-b]pyridin-2-yl)-1H-pyrazolo[3,4-c]pyridin-5-yl)pyridin-3-yl)acetamide] | 7% | > 10 µM | 8.1% | 34.8%
> 10 µM | > 10 µM | CN(C)CCOc1cncc(-c2cc3c(-c4cc5c(-c6cccnc6)ccnc5[nH]4)n[nH]c3cn2)c1 [Compound 563, N,N-Dimethyl-2-((5-(3-(4-(pyridin-3-yl)-1H-pyrrolo[2,3-b]pyridin-2-yl)-1H-pyrazolo[3,4-c]pyridin-5-yl)pyridin-3-yl)oxy)ethan-1-amine] | 0% | 1.11 µM |  | 15%
> 10 µM | > 10 µM | c1csc(-c2ccnc3[nH]c(-c4n[nH]c5cnc(-c6cncc(OC7CCCCC7)c6)cc45)cc23)c1 [Compound 703, 5-(5-(Cyclohexyloxy)pyridin-3-yl)-3-(4-(thiophen-2-yl)-1H-pyrrolo[2,3-b]pyridin-2-yl)-1H-pyrazolo[3,4-c]pyridine] | 2.7% | 1.73 µM |  | 43.3%
> 10 µM | > 10 µM | O=C(Nc1cncc(-c2cc3c(-c4cc5cccnc5[nH]4)n[nH]c3cn2)c1)c1ccccc1 [Compound 263, N-(5-(3-(1H-Pyrrolo[2,3-b]pyridin-2-yl)-1H-pyrazolo[3,4-c]pyridin-5-yl)pyridin-3-yl)benzamide] | 22.5% | > 10 µM | 55.3% | 39.2%

Structure (SMILES) | EC50 [1] | EC50 [3] | inhibition at 10 µM [1] | EC50 [2] | inhibition at 10 µM [2] | inhibition at 10 µM [3]
CC(C)CC(=O)Nc1cncc(-c2cc3c(-c4cc5c(-c6ccc(F)cc6)ccnc5[nH]4)n[nH]c3cn2)c1 [Compound 30, N-(5-(3-(4-(4-Fluorophenyl)-1H-pyrrolo[2,3-b]pyridin-2-yl)-1H-pyrazolo [3,4-c]pyridin-5-yl)pyridin-3-yl)-3-methylbutanamide] | 2.47 µM | > 10 µM |  | 0.82 µM |  | 35.6%
Oc1cncc(-c2cc3c(-c4cc5c(-c6ccc(F)cc6)ccnc5[nH]4)n[nH]c3cn2)c1 [Compound 533, 5-(3-(4-(4-Fluorophenyl)-1H-pyrrolo[2,3-b]pyridin-2-yl)-1H-pyrazolo[3,4-c]pyridin-5-yl)pyridin-3-ol] | 0.483 µM | > 10 µM |  | 3.54 µM |  | 7.2%
Fc1cccc(-c2ccnc3[nH]c(-c4n[nH]c5cnc(-c6cncnc6)cc45)cc23)c1 [Compound 27, 3-(4-(3-Fluorophenyl)-1H-pyrrolo[2,3-b]pyridin-2-yl)-5-(pyrimidin-5-yl)-1H-pyrazolo[3,4-c]pyridine] | > 10 µM | > 10 µM | 41.2% | 2.82 µM |  | 43.9%
